In EP0363589A2, “Somatostatin analogues” (SYNTEX (U.S.A.) INC., priority 1988, dated 1990):

Assays:
growth hormone = test: Nembutal-induced growth hormone assay; type: in vivo, male rats; conditions: derived from the growth hormone and insulin assays in rats
Method: After several days of acclimatization, male rats were weight-grouped and used on the succeeding one to three days. The rats were fasted the day prior to use. Each test rat was given an intramuscular (IM) injection of test compound or vehicle (0.1 % BSA-saline) into the right rear leg.
Immediately following the IM injection, a subcutaneous injection of Nembutal (60 mg/kg) was given. Thirteen minutes after Nembutal administration, each rat was exposed to 2 minutes of ether anesthesia followed by the collection of a 1 ml blood sample via the ocular orbit. Serum separator tubes were used to prepare serum from the blood samples. The serum samples were stored at -20°C until analysis by radioimmune assay. The mean percent inhibition of growth hormone was determined for the test compounds using the method as described in Examples 4 and 5 and the EDso derived.

[1] = test system: insulin-induced glucagon release; test: Insulin-induced glucagon assay; type: in vivo; conditions: derived from the glucagon and insulin assays in rats
Method: After several days of acclimatization, rats were weigh-grouped and used on the succeeding one to three days. The rats were injected subcutaneously with 40 mg/kg pentobarbitol(Nembutal). Approximately 30 minutes after injection, the jugular and the hepatic portal veins were exposed and an injection of 0.1% bovine serum albumin (BSA)-saline vehicle or 1 IU/1 ml/kg porcine insulin in the same vehicle was administered into the jugular vein. At precisely 15 minutes after the intravenous (i.v.)injection a 1 ml blood sample was collected from the hepatic portal vein and the rat sacrificed with C02.
The blood sample was collected into a syringe containing 0.70 mg Na-EDTA and 0.1 mg Aprotinin, a commercially available protease inhibitor, in 0.1 ml 0.9% saline. The blood sample was mixed in the syringe and transferred to a plastic microcontainer serum-separator tube and held in the dark on ice. Plasma was harvested within 6 hours by centrifugation and stored at -20°C. The test material was administered intramuscularly to the animal immediately prior to the i.v. injection of insulin. Plasma samples were analyzed for levels of glucagon using a commercially available radioimmuneassay kit for animal glucagon (Cambridge Medical Technology). […]

Q: For Sandostatin, which “Relative selectivities for growth hormone/insulin” value (growth hormone) is on record?
A: 103

Q: What about the “Relative selectivities for glucagon/insulin” value [1] of the same substance?
A: 11
